Assay results: ChEMBL document CHEMBL4265942, “Four new antitumor metabolites isolated from a mutant 3-f-31 strain derived from Penicillium purpurogenum G59” (Eur J Med Chem, 2018)
Counter-ions that a name gives are not always drawn. Values belong to the compound of their own block, whether it stands above or below them. Active and inactive are the calls of the source. The rule behind the calls is not given here.

Legend:
[1] = system: HT-29; assay: Antiproliferative activity against human HT-29 cells assessed as inhibition of cell growth after 72 hrs by sulforhodamine B assay; type: functional, cell-based; details: HT-29, 72 h
[2] = system: K562; assay: Antiproliferative activity against human K562 cells assessed as inhibition of cell growth after 72 hrs by MTT assay; type: functional, cell-based; details: K562, 72 h
[3] = system: L929; assay: Cytotoxicity against mouse L929 cells assessed as inhibition of cell growth after 72 hrs by MTT assay; type: cell-based; details: L929, 72 h
[4] = system: PANC-1; assay: Antiproliferative activity against human PANC1 cells assessed as inhibition of cell growth after 72 hrs by sulforhodamine B assay; type: functional, cell-based; details: PANC-1, 72 h
[5] = system: HCT-116; assay: Antiproliferative activity against human HCT116 cells assessed as inhibition of cell growth after 72 hrs by sulforhodamine B assay; type: functional, cell-based; details: HCT-116, 72 h
[6] = system: BXPC-3; assay: Antiproliferative activity against human BxPC3 cells assessed as inhibition of cell growth after 72 hrs by sulforhodamine B assay; type: functional, cell-based; details: BXPC-3, 72 h
[7] = system: HeLa; assay: Antiproliferative activity against human HeLa cells assessed as inhibition of cell growth after 72 hrs by sulforhodamine B assay; type: functional, cell-based
[8] = system: MCF7; assay: Antiproliferative activity against human MCF7 cells assessed as inhibition of cell growth after 72 hrs by sulforhodamine B assay; type: functional, cell-based; details: MCF7, 72 h
[9] = system: A549; assay: Antiproliferative activity against human A549 cells assessed as inhibition of cell growth after 72 hrs by sulforhodamine B assay; type: functional, cell-based; details: A549, 72 h
[10] = system: PC-3; assay: Antiproliferative activity against human PC3 cells assessed as inhibition of cell growth after 72 hrs by sulforhodamine B assay; type: functional, cell-based; details: PC-3, 72 h
[11] = system: NCI-H1975; assay: Antiproliferative activity against human NCI-H1975 cells assessed as inhibition of cell growth after 72 hrs by sulforhodamine B assay; type: functional, cell-based; details: NCI-H1975, 72 h
[12] = system: HepG2; assay: Antiproliferative activity against human HepG2 cells assessed as inhibition of cell growth after 72 hrs by sulforhodamine B assay; type: functional, cell-based; details: HepG2, 72 h
[13] = system: LS180; assay: Antiproliferative activity against human LS180 cells assessed as inhibition of cell growth after 72 hrs by sulforhodamine B assay; type: functional, cell-based; details: LS180, 72 h
[14] = system: HL-60; assay: Antiproliferative activity against human HL60 cells assessed as inhibition of cell growth after 72 hrs by MTT assay; type: functional, cell-based; details: HL-60, 72 h
[15] = system: SW480; assay: Antiproliferative activity against human SW480 cells assessed as inhibition of cell growth after 72 hrs by sulforhodamine B assay; type: functional, cell-based; details: SW480, 72 h
[16] = system: Mus musculus; assay: Toxicity in BALB/c nu/nu mouse xenografted with human HCT116 cells assessed as spleen index at 5 mg/kg, iv administered every other day for 14 days measured 24 hrs post last dose (reference value: 0.41 +/- 0.08%); type: organism-based; details: in vivo
[17] = system: HCT-116; assay: Antitumor activity against human HCT116 cells xenografted in BALB/c nu/nu mouse assessed as tumor growth inhibition at 5 mg/kg, iv administered every other day for 14 days measured 24 hrs post last dose relative to control; type: functional; details: HCT-116, iv, read-out: TGI
[18] = system: HCT-116; assay: Upregulation of p53 expression in human HCT116 cells at 12.5 ug/ml after 48 hrs by Western blot analysis; type: functional, cell-based
[19] = system: HCT-116; assay: Down regulation of survivin expression in human HCT116 cells at 12.5 ug/ml after 48 hrs by Western blot analysis; type: functional, cell-based
[20] = system: K562; assay: Antiproliferative activity against human K562 cells assessed as inhibition of cell growth at 1 uM after 72 hrs by MTT assay relative to control; type: functional; details: K562, 72 h
[21] = system: SW480; assay: Antiproliferative activity against human SW480 cells assessed as inhibition of cell growth at 1 uM after 72 hrs by sulforhodamine B assay relative to control; type: functional; details: SW480, 72 h
[22] = system: PANC-1; assay: Antiproliferative activity against human PANC1 cells assessed as inhibition of cell growth at 1 uM after 72 hrs by sulforhodamine B assay relative to control; type: functional; details: PANC-1, 72 h
[23] = system: HT-29; assay: Antiproliferative activity against human HT-29 cells assessed as inhibition of cell growth at 1 uM after 72 hrs by sulforhodamine B assay relative to control; type: functional; details: HT-29, 72 h
[24] = system: BXPC-3; assay: Antiproliferative activity against human BxPC3 cells assessed as inhibition of cell growth at 1 uM after 72 hrs by sulforhodamine B assay relative to control; type: functional; details: BXPC-3, 72 h
[25] = system: PC-3; assay: Antiproliferative activity against human PC3 cells assessed as inhibition of cell growth at 1 uM after 72 hrs by sulforhodamine B assay relative to control; type: functional; details: PC-3, 72 h
[26] = system: HepG2; assay: Antiproliferative activity against human HepG2 cells assessed as inhibition of cell growth at 1 uM after 72 hrs by sulforhodamine B assay relative to control; type: functional; details: HepG2, 72 h
[27] = system: HeLa; assay: Antiproliferative activity against human HeLa cells assessed as inhibition of cell growth at 1 uM after 72 hrs by sulforhodamine B assay relative to control; type: functional
[28] = system: LS180; assay: Antiproliferative activity against human LS180 cells assessed as inhibition of cell growth at 1 uM after 72 hrs by sulforhodamine B assay relative to control; type: functional; details: LS180, 72 h
[29] = system: A549; assay: Antiproliferative activity against human A549 cells assessed as inhibition of cell growth at 1 uM after 72 hrs by sulforhodamine B assay relative to control; type: functional; details: A549, 72 h
[30] = system: HCT-116; assay: Antiproliferative activity against human HCT116 cells assessed as inhibition of cell growth at 1 uM after 72 hrs by sulforhodamine B assay relative to control; type: functional; details: HCT-116, 72 h
[31] = system: NCI-H1975; assay: Antiproliferative activity against human NCI-H1975 cells assessed as inhibition of cell growth at 1 uM after 72 hrs by sulforhodamine B assay relative to control; type: functional; details: NCI-H1975, 72 h
[32] = system: MCF7; assay: Antiproliferative activity against human MCF7 cells assessed as inhibition of cell growth at 1 uM after 72 hrs by sulforhodamine B assay relative to control; type: functional; details: MCF7, 72 h
[33] = system: HL-60; assay: Antiproliferative activity against human HL60 cells assessed as inhibition of cell growth at 1 uM after 72 hrs by MTT assay relative to control; type: functional; details: HL-60, 72 h

- IC50 [1]: 85.4 µM
- IC50 [2]: 62.5 µM
- IC50 [4]: 82.6 µM
- IC50 [5]: > 100 µM
- IC50 [6]: 67.7 µM
- IC50 [7]: 78.3 µM
- IC50 [8]: 60.6 µM
- IC50 [9]: 59.4 µM
- IC50 [10]: > 100 µM
- IC50 [11]: 53.9 µM
- IC50 [12]: 78.3 µM
- IC50 [14]: 51.5 µM
- IC50 [15]: 55 µM
Compound: CCCCCC[C@@H](C)C[C@@H](C)/C=C/C(N)=O
- IC50 [3]: 13.5 µM
- IC50 [13]: 64.5 µM

Compound: CC(=O)O[C@@]12CO[C@@H]1C[C@H](O)[C@@]1(C)C(=O)[C@H](O)C3=C(C)[C@@H](OC(=O)[C@H](O)[C@@H](NC(=O)OC(C)(C)C)c4ccccc4)C[C@@](O)([C@@H](OC(=O)c4ccccc4)[C@H]21)C3(C)C [DOCETAXEL ANHYDROUS]
- Activity_index [16]: 0.25
- inhibition in vivo at 5 mg/kg [17]: 87.4%

Compound: COc1cc([C@@H]2c3cc4c(cc3[C@@H](O[C@@H]3O[C@@H]5CO[C@@H](C)O[C@H]5[C@H](O)[C@H]3O)[C@H]3COC(=O)[C@H]23)OCO4)cc(OC)c1O
- Activity [18]: Active
- Activity [19]: Active

Compound: COc1cccc2c1C(=O)c1c(O)c3c(c(O)c1C2=O)C[C@@](O)(C(=O)CO)C[C@@H]3O[C@H]1C[C@H](N)[C@H](O)[C@H](C)O1 [DOXORUBICIN HYDROCHLORIDE]
- inhibition at 1 µM [20]: 70 to 98%
- inhibition at 1 µM [21]: 70 to 98%
- inhibition at 1 µM [22]: 70 to 98%
- inhibition at 1 µM [23]: 70 to 98%
- inhibition at 1 µM [24]: 70 to 98%
- inhibition at 1 µM [25]: 70 to 98%
- inhibition at 1 µM [26]: 70 to 98%
- inhibition at 1 µM [27]: 70 to 98%
- inhibition at 1 µM [28]: 70 to 98%
- inhibition at 1 µM [29]: 70 to 98%
- inhibition at 1 µM [30]: 70 to 98%
- inhibition at 1 µM [31]: 70 to 98%
- inhibition at 1 µM [32]: 70 to 98%
- inhibition at 1 µM [33]: 70 to 98%
